The values below come from patent publication US5684205A, “Use of substituted cyclopentane- di- and -triones” (Bayer Aktiengesellschaft, priority 1994, dated 1997).

This experiment deals with airway epithelial cell line 4MBr-5. As to the kind of experiment: 36Cl chloride efflux inhibition in airway epithelial cell line 4MBr-5. The experiment is classed as cell-based. As to conditions: 20 min, 4MBr-5 cells; for inhibition at 10 µg/mL: 10 μg/ml test compound, 20 minutes efflux, expressed as a percentage of the maximal inhibition observed with NPPB. On the procedure:
This compound provides a suitable reference standard against which to judge other chloride channel blockers. […] In the test described below maximal inhibition of chloride efflux is observed at 300 μM, with 20% inhibition evident at the standard test concentration of 10 μg/ml.
The airway epithelial cell line 4MBr-5 was obtained from ATCC and cells were cultured in 35 mm diameter wells on six well plates until cell layers were confluent. Cells were loaded with Na^36 CI solutions at 2.5 μCi/well after washing the cell monolayer free of […] culture medium. Washing and loading were performed in Hepes buffer (pH 7.4) containing 130 mM NaCI, 5.4 mM KCI, 1.8 mM CaCI2, 1.0 mM NaH2 PO4, 0.8 mM MgSO4 and 5.5 mM glucose. After a loading period of 60 minutes the cell layer was rapidly washed with 50 mM Hepes in 241 mM sucrose containing […] MgSO4 and the buffer replaced with 2 ml of ^36 CI^- free buffer containing 10 μg/ml test compound, or vehicle control. (Test compound was also present for the final ten minutes of the loading procedure). After 20 minutes efflux was stopped and the radioactivity remaining in the cells determined by liquid scintillation spectrometry after lysis of the cells. After subtraction of the counts found in cells treated with vehicle the increased counts were compared to the corresponding value observed with NPPB and expressed as a percentage of the maximal inhibition.

The compound `COc1ccc(C=C2C(=O)C(O)=C(c3ccccc3)C2=O)cc1` [2/24] registered an inhibition at 10 µg/mL of 28.6%.
The compound `O=C1C(=Cc2ccc(Cl)cc2Cl)C(=O)C(c2ccccc2)=C1O` [15/36] yielded an inhibition at 10 µg/mL of 37.7%.
`O=C1C(=Cc2ccc(C(F)(F)F)cc2)C(=O)C(c2ccccc2)=C1O` [16/37] came in with an inhibition at 10 µg/mL of 58.2%.
In turn, `O=C1C(=Cc2ccc(-c3ccccc3)cc2)C(=O)C(c2ccccc2)=C1O` [17/38] yielded an inhibition at 10 µg/mL of 83.5%.
Consider `COc1ccc(C2=C(O)C(=O)C(=Cc3ccccc3)C2=O)cc1` [18/1], for which testing at 10 µg/mL gave an inhibition of 24%.
With `O=C1C(=Cc2ccccc2)C(=O)C(c2ccc(Cl)cc2)=C1O` [19/39], 10 µg/mL produced 31.1% inhibition.
`CCN(CC)c1ccc(C=C2C(=O)C(O)=C(c3ccccc3)C2=O)cc1` [20/40] displayed an inhibition at 10 µg/mL of 22.7%.
Compound `O=C1C(=Cc2ccc(OCc3ccccc3)cc2)C(=O)C(c2ccccc2)=C1O` [21/41] had an inhibition at 10 µg/mL of 50.6%.
As to `COc1ccc(C2=C(O)C(=O)C(=Cc3ccc(Cl)c(Cl)c3)C2=O)cc1` [22/42], the inhibition at 10 µg/mL amounted to 65%.
Still for that read-out and setting: to `O=C1C(=Cc2ccccc2O)C(=O)C(c2ccccc2)=C1O` [23/43] belongs 36.4%.
Turning to `O=C(O)c1cc([N+](=O)[O-])ccc1NCCCc1ccccc1` [NPPB, 2-(3-phenylpropyl)amino-5-nitrobenzoic acid, reference compound], testing at 10 µg/mL gave an inhibition of 20%. Moreover, where the note is “36Cl efflux, read-out: concentration at which maximal inhibition of chloride efflux is observed”, the IC (maximal) is 300 µM.
